Data as given in ChEMBL document CHEMBL1201862, “PubChem BioAssay data set” (2004).
Activity calls are given as the source filed them.

How the values were obtained:
Coagulation factor XII = target: T1, Coagulation factor XII (Homo sapiens, UniProt P00748); format: functional;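 further: activated factor XIIa alpha cleaving a fluorogenic AMC peptide substrate; inhibitor potency from loss of enzyme activity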
T1 sequence (P00748 whole entry): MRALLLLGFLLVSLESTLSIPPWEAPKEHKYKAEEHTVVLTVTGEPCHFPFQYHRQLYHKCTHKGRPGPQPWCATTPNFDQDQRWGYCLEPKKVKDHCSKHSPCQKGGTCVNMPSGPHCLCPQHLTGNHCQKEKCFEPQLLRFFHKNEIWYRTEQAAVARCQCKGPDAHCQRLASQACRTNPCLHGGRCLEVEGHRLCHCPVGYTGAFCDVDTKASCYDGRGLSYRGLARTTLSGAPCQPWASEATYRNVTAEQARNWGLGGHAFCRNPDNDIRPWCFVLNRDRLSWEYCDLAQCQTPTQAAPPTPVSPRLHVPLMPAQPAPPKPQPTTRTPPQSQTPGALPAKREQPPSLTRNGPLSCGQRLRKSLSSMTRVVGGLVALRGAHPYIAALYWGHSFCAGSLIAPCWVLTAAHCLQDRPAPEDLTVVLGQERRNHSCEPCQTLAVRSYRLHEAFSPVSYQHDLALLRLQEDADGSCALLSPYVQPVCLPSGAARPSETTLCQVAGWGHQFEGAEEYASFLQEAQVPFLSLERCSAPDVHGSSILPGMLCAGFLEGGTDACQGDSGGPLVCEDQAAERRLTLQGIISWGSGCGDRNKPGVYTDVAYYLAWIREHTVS

[1] = target: T2, Replicative DNA helicase DnaB (Mycobacterium tuberculosis, UniProt P9WMR3); test: DnaB intein splicing inhibitors, dose response, biochemical, cell-free fluorescence (AID 449749); format: functional
T2 sequence (P9WMR3 whole entry): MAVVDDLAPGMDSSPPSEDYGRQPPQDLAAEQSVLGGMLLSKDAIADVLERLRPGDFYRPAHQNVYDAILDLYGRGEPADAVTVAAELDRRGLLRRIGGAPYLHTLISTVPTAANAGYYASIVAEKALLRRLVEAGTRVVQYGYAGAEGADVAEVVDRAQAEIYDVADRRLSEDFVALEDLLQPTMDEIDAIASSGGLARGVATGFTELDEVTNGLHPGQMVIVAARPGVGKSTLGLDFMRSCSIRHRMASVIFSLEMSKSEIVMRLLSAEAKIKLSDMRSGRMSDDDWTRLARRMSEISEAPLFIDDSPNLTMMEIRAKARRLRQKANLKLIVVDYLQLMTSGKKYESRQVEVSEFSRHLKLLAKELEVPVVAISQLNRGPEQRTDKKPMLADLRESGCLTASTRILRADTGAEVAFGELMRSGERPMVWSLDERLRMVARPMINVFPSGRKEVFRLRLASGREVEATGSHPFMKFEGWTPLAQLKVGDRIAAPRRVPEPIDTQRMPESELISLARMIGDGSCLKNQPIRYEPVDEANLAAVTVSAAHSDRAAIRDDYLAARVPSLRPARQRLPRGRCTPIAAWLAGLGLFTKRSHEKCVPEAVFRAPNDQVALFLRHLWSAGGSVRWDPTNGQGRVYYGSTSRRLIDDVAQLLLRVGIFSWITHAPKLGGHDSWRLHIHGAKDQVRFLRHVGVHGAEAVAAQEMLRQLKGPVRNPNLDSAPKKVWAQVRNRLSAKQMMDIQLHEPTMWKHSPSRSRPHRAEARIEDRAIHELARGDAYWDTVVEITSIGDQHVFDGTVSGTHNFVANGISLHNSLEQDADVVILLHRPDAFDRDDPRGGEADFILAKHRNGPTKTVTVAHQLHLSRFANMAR

Protein RecA = target: T3, Protein RecA (Mycobacterium tuberculosis, UniProt P9WHJ3); test: Fluorescence Cell-Free Homogeneous Dose Retest to Identify Inhibitors of RecA-Intein Splicing Activity. [Related pubchem assays (depositor defined):AID2097, AID2223, AID489010, AID492950]; format: functional
T3 sequence (P9WHJ3 whole entry): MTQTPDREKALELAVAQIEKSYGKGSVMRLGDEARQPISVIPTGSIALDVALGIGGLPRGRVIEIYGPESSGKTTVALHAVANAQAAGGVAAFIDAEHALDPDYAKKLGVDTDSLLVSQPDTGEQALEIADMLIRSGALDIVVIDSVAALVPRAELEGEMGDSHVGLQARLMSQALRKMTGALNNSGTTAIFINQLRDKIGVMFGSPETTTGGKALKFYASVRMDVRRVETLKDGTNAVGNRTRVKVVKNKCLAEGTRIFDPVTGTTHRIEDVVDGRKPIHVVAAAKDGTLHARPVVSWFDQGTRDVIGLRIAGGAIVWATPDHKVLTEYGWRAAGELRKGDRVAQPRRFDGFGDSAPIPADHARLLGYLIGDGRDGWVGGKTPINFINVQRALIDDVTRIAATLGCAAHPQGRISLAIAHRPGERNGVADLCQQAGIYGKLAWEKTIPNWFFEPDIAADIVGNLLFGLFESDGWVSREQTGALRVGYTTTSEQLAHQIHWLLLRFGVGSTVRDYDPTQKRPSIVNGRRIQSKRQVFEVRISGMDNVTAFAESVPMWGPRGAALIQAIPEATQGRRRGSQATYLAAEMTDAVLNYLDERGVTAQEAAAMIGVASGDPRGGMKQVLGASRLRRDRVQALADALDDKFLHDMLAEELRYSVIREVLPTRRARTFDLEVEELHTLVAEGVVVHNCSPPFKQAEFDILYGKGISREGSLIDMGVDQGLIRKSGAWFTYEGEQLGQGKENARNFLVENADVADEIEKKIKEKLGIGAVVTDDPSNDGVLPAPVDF

Beta-galactosidase = Beta-galactosidase (Escherichia coli, UniProt Q8VNN2); test: PubChem AID 485352; format: functional
Chain of Beta-galactosidase (Q8VNN2 whole entry): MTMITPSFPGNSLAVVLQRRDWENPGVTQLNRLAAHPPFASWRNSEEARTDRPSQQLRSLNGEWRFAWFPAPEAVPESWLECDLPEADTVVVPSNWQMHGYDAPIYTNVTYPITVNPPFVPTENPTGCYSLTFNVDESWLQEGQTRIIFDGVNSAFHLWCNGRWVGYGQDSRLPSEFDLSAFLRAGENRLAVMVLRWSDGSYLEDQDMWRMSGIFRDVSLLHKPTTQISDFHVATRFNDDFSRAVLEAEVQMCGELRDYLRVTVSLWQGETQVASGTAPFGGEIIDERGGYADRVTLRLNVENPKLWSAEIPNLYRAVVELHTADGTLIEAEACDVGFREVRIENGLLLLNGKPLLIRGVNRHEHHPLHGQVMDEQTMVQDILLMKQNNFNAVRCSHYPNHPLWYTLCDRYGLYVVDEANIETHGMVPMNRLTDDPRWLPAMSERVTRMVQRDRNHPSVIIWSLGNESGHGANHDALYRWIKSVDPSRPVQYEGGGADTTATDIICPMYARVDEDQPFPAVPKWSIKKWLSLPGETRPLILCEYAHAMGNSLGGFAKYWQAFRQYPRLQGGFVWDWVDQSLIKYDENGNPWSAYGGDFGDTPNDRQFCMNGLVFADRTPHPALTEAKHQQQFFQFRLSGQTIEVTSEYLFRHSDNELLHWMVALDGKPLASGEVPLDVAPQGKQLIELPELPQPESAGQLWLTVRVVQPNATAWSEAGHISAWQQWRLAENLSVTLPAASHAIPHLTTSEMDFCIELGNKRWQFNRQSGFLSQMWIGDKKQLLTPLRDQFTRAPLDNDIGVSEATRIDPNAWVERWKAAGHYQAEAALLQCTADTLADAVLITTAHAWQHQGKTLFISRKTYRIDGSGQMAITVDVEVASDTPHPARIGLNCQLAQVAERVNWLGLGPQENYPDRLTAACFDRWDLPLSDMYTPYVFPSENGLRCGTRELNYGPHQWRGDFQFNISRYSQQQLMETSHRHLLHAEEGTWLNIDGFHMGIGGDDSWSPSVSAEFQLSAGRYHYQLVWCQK

[2] = target: T4, Type-1 angiotensin II receptor (Homo sapiens, UniProt P30556); test: AT1 receptor antagonists, dose response, selectivity assay for APJ receptor antagonist project, cell-based, uHTS hits (AID 463214); format: functional;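 further: antagonist potency against angiotensin II stimulated AT1 response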
T4 sequence (P30556 whole entry): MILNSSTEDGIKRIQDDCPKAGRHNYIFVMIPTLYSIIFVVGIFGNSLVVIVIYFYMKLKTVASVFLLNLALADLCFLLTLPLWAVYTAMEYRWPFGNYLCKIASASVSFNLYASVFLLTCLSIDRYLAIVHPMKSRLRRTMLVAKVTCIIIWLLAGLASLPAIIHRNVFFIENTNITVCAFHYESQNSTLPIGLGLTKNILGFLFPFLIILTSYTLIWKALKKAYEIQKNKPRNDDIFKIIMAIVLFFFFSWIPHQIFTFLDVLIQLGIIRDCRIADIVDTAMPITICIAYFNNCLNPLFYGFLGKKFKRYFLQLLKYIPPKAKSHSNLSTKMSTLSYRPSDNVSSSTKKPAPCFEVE

[3] = C. albicans growth with fluconazole, confirmation, fluorescence, retest (AID 2467); format: functional, cell-based
cells = format: functional
[4] = Luminescence Cell-Based Dose Retest to Confirm Inhibitors of Cancer Stem Cells. [Related pubchem assays (depositor defined):AID2717, AID2721]; format: functional; details: Homo sapiens
Vero = test: cells; format: functional; details: Chlorocebus sabaeus
[5] = NIH-3T3 fibroblast cytotoxicity, dose response, cytotoxicity control, cell-based, fluorescence, Alamar Blue, secondary assay (AID 2327); format: functional;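 further: NIH-3T3 mouse fibroblasts cultured with fluconazole at 8 µg/mL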
[6] = THP-1 cell cytotoxicity, dose response, cytotoxicity control for non-replicating M. tuberculosis project (AID 489025); format: functional
[7] = target: T5, Voltage-gated N-type calcium channel alpha-1B subunit/Amyloid beta A4 precursor protein-binding family A member 1 (Homo sapiens, UniProt Q00975+Q02410); format: protein assay
T5 sequence (Q00975 whole entry): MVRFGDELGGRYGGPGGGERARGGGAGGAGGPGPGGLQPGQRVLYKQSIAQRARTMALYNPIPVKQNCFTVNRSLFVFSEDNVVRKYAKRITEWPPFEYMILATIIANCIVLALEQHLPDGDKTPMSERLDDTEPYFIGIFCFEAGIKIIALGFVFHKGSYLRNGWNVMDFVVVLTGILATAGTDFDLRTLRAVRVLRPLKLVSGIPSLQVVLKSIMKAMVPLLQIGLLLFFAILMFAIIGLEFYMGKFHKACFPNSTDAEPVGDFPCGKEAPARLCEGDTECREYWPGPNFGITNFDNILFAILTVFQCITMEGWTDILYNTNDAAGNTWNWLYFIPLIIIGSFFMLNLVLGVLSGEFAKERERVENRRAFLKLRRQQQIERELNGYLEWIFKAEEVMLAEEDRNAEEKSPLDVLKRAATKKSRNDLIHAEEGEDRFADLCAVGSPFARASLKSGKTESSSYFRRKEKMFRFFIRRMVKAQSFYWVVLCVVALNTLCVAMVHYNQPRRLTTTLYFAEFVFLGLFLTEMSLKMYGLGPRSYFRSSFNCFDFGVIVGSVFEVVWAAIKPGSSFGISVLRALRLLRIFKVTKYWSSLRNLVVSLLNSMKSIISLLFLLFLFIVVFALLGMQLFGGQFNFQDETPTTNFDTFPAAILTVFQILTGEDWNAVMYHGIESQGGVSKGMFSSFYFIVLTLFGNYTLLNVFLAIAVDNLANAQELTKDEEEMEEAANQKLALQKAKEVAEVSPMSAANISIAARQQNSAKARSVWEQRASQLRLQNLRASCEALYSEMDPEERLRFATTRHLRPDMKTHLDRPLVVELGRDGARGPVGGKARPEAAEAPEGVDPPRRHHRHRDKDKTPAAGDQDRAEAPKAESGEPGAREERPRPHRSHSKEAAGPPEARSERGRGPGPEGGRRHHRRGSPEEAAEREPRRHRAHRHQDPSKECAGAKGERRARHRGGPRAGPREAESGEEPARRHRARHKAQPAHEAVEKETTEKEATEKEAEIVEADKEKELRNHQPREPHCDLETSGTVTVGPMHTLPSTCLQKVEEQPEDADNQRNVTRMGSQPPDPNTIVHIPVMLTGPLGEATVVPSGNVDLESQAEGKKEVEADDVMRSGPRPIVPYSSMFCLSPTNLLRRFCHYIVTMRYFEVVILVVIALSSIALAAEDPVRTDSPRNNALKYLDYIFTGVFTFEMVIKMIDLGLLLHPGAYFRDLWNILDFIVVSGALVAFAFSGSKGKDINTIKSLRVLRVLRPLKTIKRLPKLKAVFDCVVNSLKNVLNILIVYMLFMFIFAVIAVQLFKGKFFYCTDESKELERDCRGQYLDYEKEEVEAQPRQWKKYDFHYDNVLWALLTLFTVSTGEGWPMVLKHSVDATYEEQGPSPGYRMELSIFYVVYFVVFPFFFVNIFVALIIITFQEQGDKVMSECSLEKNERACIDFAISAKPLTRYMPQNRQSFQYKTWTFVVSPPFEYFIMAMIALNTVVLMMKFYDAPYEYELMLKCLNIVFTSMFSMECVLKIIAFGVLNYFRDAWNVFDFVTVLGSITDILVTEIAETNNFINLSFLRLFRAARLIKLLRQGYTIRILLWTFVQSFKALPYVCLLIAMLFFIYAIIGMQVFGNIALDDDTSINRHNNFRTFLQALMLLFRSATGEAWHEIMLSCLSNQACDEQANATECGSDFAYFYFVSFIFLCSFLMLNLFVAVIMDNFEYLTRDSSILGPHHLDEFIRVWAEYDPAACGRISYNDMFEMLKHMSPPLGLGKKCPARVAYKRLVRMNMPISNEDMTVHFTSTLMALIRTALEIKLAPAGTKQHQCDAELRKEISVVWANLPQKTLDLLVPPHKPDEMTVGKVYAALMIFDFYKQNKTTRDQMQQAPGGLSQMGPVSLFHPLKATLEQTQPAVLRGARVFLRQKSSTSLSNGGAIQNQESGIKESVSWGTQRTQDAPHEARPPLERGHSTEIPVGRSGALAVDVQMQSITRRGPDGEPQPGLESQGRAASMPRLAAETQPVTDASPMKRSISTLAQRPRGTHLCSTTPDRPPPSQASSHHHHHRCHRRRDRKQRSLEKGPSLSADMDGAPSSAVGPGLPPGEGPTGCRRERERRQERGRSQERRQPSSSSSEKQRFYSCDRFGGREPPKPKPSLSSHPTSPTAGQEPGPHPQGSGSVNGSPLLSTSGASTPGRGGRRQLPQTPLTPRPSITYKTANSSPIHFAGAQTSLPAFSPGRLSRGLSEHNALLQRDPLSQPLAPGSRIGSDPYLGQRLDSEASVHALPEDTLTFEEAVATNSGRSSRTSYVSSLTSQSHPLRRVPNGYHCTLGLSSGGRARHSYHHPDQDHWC
T5 sequence (Q02410 whole entry): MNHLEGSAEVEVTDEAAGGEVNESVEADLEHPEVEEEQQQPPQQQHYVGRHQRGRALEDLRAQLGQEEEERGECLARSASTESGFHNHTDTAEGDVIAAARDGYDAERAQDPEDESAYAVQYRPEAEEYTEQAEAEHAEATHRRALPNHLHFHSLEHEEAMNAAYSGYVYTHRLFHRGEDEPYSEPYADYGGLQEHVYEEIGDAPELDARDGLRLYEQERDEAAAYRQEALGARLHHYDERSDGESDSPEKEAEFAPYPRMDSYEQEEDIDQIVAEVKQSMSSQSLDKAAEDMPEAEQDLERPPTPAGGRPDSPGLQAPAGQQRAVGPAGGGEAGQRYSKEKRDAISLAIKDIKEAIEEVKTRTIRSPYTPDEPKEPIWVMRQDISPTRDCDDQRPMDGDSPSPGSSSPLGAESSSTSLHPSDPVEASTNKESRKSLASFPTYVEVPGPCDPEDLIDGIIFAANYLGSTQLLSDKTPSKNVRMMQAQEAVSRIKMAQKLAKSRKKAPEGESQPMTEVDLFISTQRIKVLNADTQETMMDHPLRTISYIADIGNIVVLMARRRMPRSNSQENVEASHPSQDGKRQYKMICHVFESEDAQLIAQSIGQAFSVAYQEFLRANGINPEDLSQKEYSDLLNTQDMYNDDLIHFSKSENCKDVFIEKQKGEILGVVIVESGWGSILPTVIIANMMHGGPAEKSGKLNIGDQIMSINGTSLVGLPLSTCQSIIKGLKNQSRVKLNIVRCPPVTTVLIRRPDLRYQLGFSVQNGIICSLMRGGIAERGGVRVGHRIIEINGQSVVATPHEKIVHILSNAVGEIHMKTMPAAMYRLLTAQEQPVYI

[8] = target: T5, Voltage-gated N-type calcium channel alpha-1B subunit/Amyloid beta A4 precursor protein-binding family A member 1; format: protein assay; remark: listed apart in the source
Cytochrome P450 3A4 = Cytochrome P450 3A4 (Homo sapiens, UniProt P08684);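 further: CYP3A4 tested as one member of a cytochrome P450 panel screen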
Chain of Cytochrome P450 3A4 (P08684 whole entry): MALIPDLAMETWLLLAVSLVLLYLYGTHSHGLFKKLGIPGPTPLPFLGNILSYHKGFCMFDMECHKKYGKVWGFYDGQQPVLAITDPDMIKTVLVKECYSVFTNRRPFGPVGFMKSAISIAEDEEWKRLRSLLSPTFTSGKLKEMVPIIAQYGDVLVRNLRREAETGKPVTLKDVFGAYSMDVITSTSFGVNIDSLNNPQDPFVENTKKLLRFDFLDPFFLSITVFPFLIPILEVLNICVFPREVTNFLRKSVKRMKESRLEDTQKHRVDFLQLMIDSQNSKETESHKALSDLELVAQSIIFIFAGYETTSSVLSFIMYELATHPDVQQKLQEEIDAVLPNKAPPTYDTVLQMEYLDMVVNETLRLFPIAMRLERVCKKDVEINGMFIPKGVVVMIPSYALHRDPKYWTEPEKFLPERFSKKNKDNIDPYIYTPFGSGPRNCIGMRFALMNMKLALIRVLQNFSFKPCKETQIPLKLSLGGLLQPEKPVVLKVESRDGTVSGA

[9] = cytotoxicity in HEK-293T cells, dose response, cytotoxicity control for TCR NF-kB inhibitor project, luminescence, T-cell screen hits (AID 489026); format: functional, cell-based;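 further: cells exposed to compound about 14 hours before the viability readout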
Estrogen receptor = target: T6, Estrogen receptor (Homo sapiens, UniProt P03372);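 further: potency for inhibiting coactivator peptide recruitment to the receptor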
T6 sequence (P03372 whole entry): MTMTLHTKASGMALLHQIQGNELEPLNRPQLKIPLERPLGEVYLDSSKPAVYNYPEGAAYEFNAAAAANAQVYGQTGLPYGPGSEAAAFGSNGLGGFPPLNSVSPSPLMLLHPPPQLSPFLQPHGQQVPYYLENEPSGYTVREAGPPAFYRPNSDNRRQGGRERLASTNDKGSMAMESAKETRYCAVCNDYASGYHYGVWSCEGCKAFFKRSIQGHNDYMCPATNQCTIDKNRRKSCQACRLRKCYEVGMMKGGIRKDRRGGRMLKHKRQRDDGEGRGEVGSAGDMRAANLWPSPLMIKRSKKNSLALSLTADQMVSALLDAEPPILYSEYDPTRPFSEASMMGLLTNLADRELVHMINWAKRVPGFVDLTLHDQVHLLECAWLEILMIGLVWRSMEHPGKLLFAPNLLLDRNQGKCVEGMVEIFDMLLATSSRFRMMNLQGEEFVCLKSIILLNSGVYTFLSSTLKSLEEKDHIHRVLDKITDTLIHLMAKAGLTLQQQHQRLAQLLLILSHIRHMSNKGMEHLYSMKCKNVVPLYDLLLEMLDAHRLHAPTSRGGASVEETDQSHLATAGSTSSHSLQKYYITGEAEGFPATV

[10] = target: Induced myeloid leukemia cell differentiation protein Mcl-1 (Homo sapiens, UniProt Q07820); format: functional
Chain of Induced myeloid leukemia cell differentiation protein Mcl-1 (Q07820 whole entry): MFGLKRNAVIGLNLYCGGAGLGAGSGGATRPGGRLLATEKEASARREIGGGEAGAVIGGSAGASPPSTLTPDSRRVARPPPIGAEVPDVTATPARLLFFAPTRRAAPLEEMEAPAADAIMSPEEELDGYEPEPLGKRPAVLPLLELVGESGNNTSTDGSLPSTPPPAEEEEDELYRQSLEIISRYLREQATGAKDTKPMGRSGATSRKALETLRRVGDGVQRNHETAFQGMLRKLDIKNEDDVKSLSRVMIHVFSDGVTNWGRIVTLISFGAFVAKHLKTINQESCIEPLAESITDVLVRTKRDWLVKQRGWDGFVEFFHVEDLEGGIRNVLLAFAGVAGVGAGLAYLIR

[11] = inhibitors of SNCA 5'UTR-driven reporter translation, confirmation, H4 neuroglioma cells, luminescence (AID 1988); format: functional, cell-based
[12] = inhibitors of firefly luciferase expression or activity, dose response, H4 neuroglioma cells, luminescence (AID 1990); format: functional, cell-based
BJ [13] = test: cytotoxicity toward BJ-TERT fibroblasts, dose response, cell-based, RAS-independent, luminescence (AID 1933); format: functional; details: Homo sapiens
BJ [14] = test: cells; format: functional, cell-based; details: Homo sapiens
[15] = cytotoxicity toward DRD oncogenic fibroblasts, dose response, cell-based, non-viral oncogenic, luminescence (AID 1934); format: functional; details: Homo sapiens
BJ [16] = test: cytotoxicity toward BJ-TERT-LT-ST fibroblasts, dose response, cell-based, RAS-independent, luminescence (AID 1935); format: functional; details: Homo sapiens;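 further: BJ fibroblasts immortalized with TERT plus LT and ST oncogenes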
[17] = Luminescence Cell-Based Dose Response HTS to Identify Inhibitors of 5'UTR Stem-Loop Driven Prion Protein mRNA Translation in H4 Neuroglioblastoma Cells. [Related pubchem assays: 1827 (Project Summary), 1813 (Primary HTS)]; format: functional

SMILES: COC(=O)CS(=O)(=O)c1nnc([C@H](Cc2ccccc2)NC(=O)OC(C)(C)C)o1
- IC50 (Coagulation factor XII): 8.95 µM (active)
- AC50 [1]: 6.11 µM (active)
- EC50 (Protein RecA): 7.24 µM (active)
- EC50 (Beta-galactosidase): > 40 µM (inactive)
- IC50 [2]: 12.4 µM (active)

SMILES: CN1CCN(S(=O)(=O)c2ccc(Br)s2)CC1
- IC50 (Coagulation factor XII): > 50 µM (inactive)

SMILES: OC(CNCCc1ccc(C(F)(F)F)cc1)COc1ccc2ccccc2c1 (stereo not drawn)
- EC50 [3]: > 38 µM (not active)
- IC50 (cells): 22.4 µM (active)
- AC50 [4]: 3.34 µM (active)
- CC50 (Vero): 16.6 µM (active)
- EC50 [5]: 7.21 µM (active)
- CC50 [6]: > 40 µM (active)

SMILES: COC(Cn1c(C)c(C(C)=O)c(C(C)=O)c1C)OC
- IC50 (Coagulation factor XII): > 50 µM (inactive)

SMILES: COc1cc(NC(=O)c2ccccc2F)ccc1NC(=O)c1cc2ccccc2o1
- IC50 [7]: 15.9 µM (active)
- IC50 [8]: > 50 µM (inactive)

SMILES: CCOc1ccc(N=C(N)Nc2nc(CSc3nnc(C)s3)cc(=O)[nH]2)cc1
- IC50 (Coagulation factor XII): > 50 µM (inactive)

SMILES: CCCCOc1ccccc1C1CC(=O)NC2=C1C(=O)CCC2 (stereo not drawn)
- AC50 (Cytochrome P450 3A4): 15.8 µM (inconclusive)
- IC50 [9]: > 80 µM (inactive)

SMILES: CCCc1nnc2n1N=C(c1ccc(-c3cc(Cl)ccc3Cl)o1)CS2
- IC50 (Estrogen receptor): 13.4 µM (active)

SMILES: CC(/C=C/c1ccco1)=N\NC(=O)c1cc(C)[nH]n1
- IC50 [10]: 4.92 µM (active)
- IC50 [7]: 4.52 µM (active)
- IC50 [8]: 11.8 µM (active)

SMILES: COc1cc(OC)nc(NC(=O)C(C)C)n1
- IC50 (Estrogen receptor): > 50 µM (not active)

SMILES: CCOc1ccc(NC(=N)Nc2nc(O)cc(CSc3nnc(C)s3)n2)cc1
- EC50 [11]: 5.83 µM (active)
- AC50 [4]: 0.298 µM (active)
- EC50 [12]: 9.79 µM (active)
- EC50 (BJ [13]): 1.11 µM (active)
- EC50 (BJ [14]): 20.6 µM (active)
- EC50 [15]: 0.597 µM (active)
- EC50 (BJ [16]): 1.37 µM (active)
- EC50 [17]: 0.291 µM (active)
- IC50 [9]: > 80 µM (inactive)

SMILES: COc1cccc(NC(=N)Nc2nc(O)cc(CSc3ccccn3)n2)c1
- IC50 [9]: > 80 µM (inactive)

SMILES: O=c1[nH]c(-c2ccc3c(c2)OCO3)nc2c1sc(=S)n2-c1ccccc1
- IC50 [7]: 5.13 µM (active)
- IC50 [8]: > 50 µM (inactive)

SMILES: O=C(CSc1nc2c(c(=O)n1-c1ccc(Br)cc1)SCC2)Nc1nccs1
- IC50 (Estrogen receptor): > 50 µM (not active)

SMILES: O=C(Nc1cnc(O)nc1O)c1ccc2c(c1)C(=O)N(c1cccc([N+](=O)[O-])c1)C2=O
- IC50 [7]: 9.85 µM (active)
- IC50 [8]: > 50 µM (inactive)

SMILES: Cc1cccc(Nc2cc(=O)[nH]c(=O)[nH]2)c1C
- IC50 (Coagulation factor XII): > 50 µM (inactive)

SMILES: CCN(CC)C(=O)C(C(=O)c1cccc([N+](=O)[O-])c1)n1cc(Cl)ccc1=O (stereo not drawn)
- EC50 (BJ [13]): > 150 µM (not active)
- EC50 (BJ [14]): > 150 µM (not active)
- EC50 [15]: > 150 µM (not active)
- EC50 (BJ [16]): > 150 µM (inconclusive)
